Experimental findings from US12414960B2, “Analogues of oleuropein and oleacein and uses thereof” (Attica Sciences Ltd., priority 2020, dated 2025) are described below.

Entries after “also recorded” stand apart in the source; their conditions may differ.

The test system of one data set is p65/NFKB (S536). Description: ELISA of p65/NFKB (S536) in PANC-1 cells. Type of data set: cell-based, human. The settings on record: rIGF1, 5 μM, 24 hours. The method, then:
ELISA assay was used to evaluate the effect of GS compounds on protein activity levels in PANC-1 cancer cells. PANC-1 cells were serum-starved overnight and then treated with rIGF1 (100 ng/mL) for 24 hours, with or without GS27 (5 μM). The levels of the following proteins were evaluated by ELISA assay: a) p70 S6 (T389) (cat no. 54164C, Cell Signaling); b) pAKT (S473), (cat no. 80895, Cell Signaling); c) pACLY (S455), (cat no. okag1672, Avivasysbio); d) pAMPK (T172) (cat no. 7959C, Cell Signaling) and e) p65/NFKB (S536), (cat no. 7173, Cell Signaling).
PANC-1 is a human pancreatic ductal adenocarcinoma cell line derived from the carcinoma of a person.
The molecular mechanism of action of GS27, a compound that has exerted potent anti-cancer activity in different cancer cell lines including pancreatic cancer cells, was investigated. Oleacein has been implicated to have anti-inflammatory and metabolic effects, thus the potential effects of GS27 in different metabolic and inflammatory pathways were evaluated. Specifically, the protein levels of p70 S6 (T389), pAKT (S473), pACLY (S455), pAMPK (T172) and p65/NFKB (S536) were evaluated by ELISA assay in PANC-1 pancreatic cancer cells treated with 5 μM GS27. GS27 reduced p70 S6 and AKT phosphorylation levels, while it increased AMPK phosphorylation.
On the technique in general: In an ELISA, binding on a coated surface is turned into a signal by an enzyme label.

In a further data set the test system is PANC-1 cancer cells. Description: Cell Titer-Glo cell viability assay, PANC-1. Type of data set: cell-based, human. The settings on record: 5 μM, 24 hours; compared with SB204990 and BMS303141. The source says:
The CellTiter-Glo® Luminescent Cell Viability Assay (Promega Corporation; Madison, WI) is a homogeneous method of determining the number of viable cells in culture based on quantitation of the ATP present, an indicator of metabolically active cells. The homogeneous assay procedure involves adding the single reagent (CellTiter-Glo® Reagent) directly to cells cultured in serum-supplemented medium. The homogeneous “add-mix-measure” format results in cell lysis and generation of a luminescent signal proportional to the amount of ATP present. The amount of ATP is directly proportional to the number of cells present in culture.
Cancer cells (3,000 cells/well) were harvested in a 96-well plate. Then, the cancer cells were treated with GS compounds and incubated for 24 hours. The MT Cell Viability Substrate, NanoLuc® Enzyme and cell culture medium was equilibrated to 37° C. The 2× RealTime-Glo™ reagent was prepared by diluting the MT Cell Viability Substrate and NanoLuc® Enzyme in 37° C. cell culture medium to a 2× concentration for each reagent. […] The cells were kept for ˜20 minutes in the cell culture incubator and then luminescence was measured by using a plate-reading luminometer. […]

The next data set relates to Raw 264.7 cells. Description: Raw 264.7 macrophage cell growth (trypan blue count). The class given is cell-based, BALB/C mice. As to conditions: 1, 10, 25, 50, 100, 200 μM, 24 h. The method, then: The effect of GS27 on the growth of Raw 264.7 cells was evaluated to examine GS27 potential toxicity effects. RAW 264.7 cells are macrophage-like Abelson leukemia virus transformed cell line derived from BALB/C mice. The cell line was obtained from ATCC.
RAW 264.7 cells were maintained at 37° C., in a 5% CO2 and 100% humidity incubator and grown in suspension, in non-adherent flasks, in RPMI 1640-Glutamax to which was added 50 U/mL of penicillin, 50 μg/mL streptomycin and 10% (v/v) fetal bovine serum (FBS). These cells were exposed to increasing doses of GS27 (1, 10, 25, 50, 100, 200 μM) for 24 h and after the exposure period, the cells were harvested with trypsin-EDTA and trypan blue was applied to the cell suspension. Non-colored and blue cells were counted while using an automated cell counter.

The test system of data set [1] is C4-2 castration-resistant prostate cells. The data set can be described thus: C4-2 castration-resistant prostate cancer cell growth. Type of data set: cell-based. The settings on record: 72 hours, androgen-depleted conditions. As to the method: The effect of GS27 on castration-resistant prostate cancer cells was evaluated, alone and in combination with enzalutamide (ENZ). Enzalutamide (XTANDI; Astellas Pharma), is an androgen receptor inhibitor used for treatment of patients with prostate cancer. In a further study, the effect of G27 in combination with ENZ on castration-resistant prostate cancer cells was compared to combination treatment of NDI-091143 with ENZ.
C4-2 Castration-resistant prostate cells cultured in androgen-depleted conditions were treated with 1 μM of GS27, in the presence or absence of 10 μM of enzalutamide (ENZ) for 72 hours.
C4-2 castration-resistant prostate cells cultured in androgen-depleted conditions were treated with 1 μM of GS27 or NDI-091143, in the presence of 10 μM of enzalutamide (ENZ) for 72 hours.

For the next data set, the system named is IL-1β. The data set can be described thus: ELISA of IL-1β in PMA/LPS-treated THP-1 cells. The settings on record: THP-1, PMA then LPS 100 ng/ml 24 hours, 5 uM compound added 2 hours before LPS. The class given is cell-based, human. As to the method: (§1) Human monocytes (THP-1, ATCC) were cultured in RPMI 1640 media supplemented with HEPES buffer (10 mM), sodium pyruvate (1 mM), glucose (4.5 g/L), fetal bovine serum (10%), penicillin (100 U/mL), streptomycin (100 μg/mL), and 2-mercaptoethanol (0.05 mM). THP-1 cells were treated with PMA (100 ng/ml) for 48 hours and then washed and rested for 24 hours in PMA-free media. These cells were treated with LPS (100 ng/ml) for 24 hours in the presence or absence of 5 uM of […] compounds (added 2 hours before LPS). Cell culture supernatants were collected and IL-1β (cat. No DLB50, R&D Systems), TNF-α (cat. no. DTA00D, R&D Systems) and IL-6 (cat. No D6050, R&D Systems) protein levels were evaluated by ELISA assay.

In a further data set the test system is IL-6. The data set can be described thus: ELISA of IL-6 in PMA/LPS-treated THP-1 cells. The class given is cell-based, human. As to conditions: THP-1, PMA then LPS 100 ng/ml 24 hours, 5 uM compound added 2 hours before LPS. As to the method: as §1

With `C/C=C(/C=O)[C@@H](CC=O)CC(=O)SCCc1ccccc1` [GS27, S-phenethyl (3S,4E)-4-formyl-3-(2-oxoethyl)hex-4-enethioate], the p65/NFKB activity result with p65/NFKB (S536) is “inhibiting”. Also, the “suppression of PANC-1 cancer cell growth” value in the data set with PANC-1 cancer cells is given as “best effect”. The “effect on Raw 264.7 cell growth” value in the data set with Raw 264.7 cells was “no effect”. For the same molecule, the “growth of C4-2 prostate cancer cells, combination with enzalutamide” value in data set [1] (1 μM plus 10 μM enzalutamide) is “substantial additive effect; also recorded: more effective than NDI-091143 and enzalutamide”. Further, in data set [1] (1 μM), the “growth of C4-2 prostate cancer cells, compound alone” value is “inhibited the growth”.
`C/C=C(/C=O)[C@@H](CC=O)CC(=O)OCCOc1ccccc1` [GS24, (3S,4E)-4-formyl-3-(2-oxoethyl)-4-hexenoic acid 2-phenoxyethyl ester]: in the data set on IL-1β, the IL-1β protein levels entry is “more effectively reduced”. In addition, the IL-6 protein levels result in the data set on IL-6 was “effective for reducing”.
